These results are taken from ChEMBL document CHEMBL1201862, “PubChem BioAssay data set” (2004).

Test in all cases: DTP human tumour cell line panel, 48 h
Experiment [1] has as its system OVCAR-3.
For experiment [2], the system named is 786-0.
Experiment [3] has as its system NCI-H226.
In experiment [4] the test system is MCF7.
Experiment [5] has as its system COLO 205.
The test system of experiment [6] is SF-539.
Experiment [7] has as its system HOP-62.
Experiment [8] relates to NCI-H460.
The subject of experiment [9] is RXF 393.
Experiment [10] relates to IGROV-1.
Experiment [11] deals with ACHN.
Experiment [12] relates to HCT-116.
Experiment [13] concerns A549.
Experiment [14] has as its system SK-MEL-2.
Experiment [15] concerns RPMI-8226.
Experiment [16] deals with LOX IMVI.
For experiment [17], the system named is NCI-H23.
In experiment [18] the test system is PC-3.
Experiment [19] has as its system HT-29.
In experiment [20] the test system is TK-10.

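Step 1: Grow cells in 96-well plates. Step 2: Expose to compound for 48 hours at 5 concentrations. Step 3: Interpolate endpoints linearly; if unreached, use highest concentration. GI50: concentration for 50% inhibition of growth.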 Calls of active or inactive are those of the source. No stated cut-off is given here; in the data, active = GI50 up to about 1.1 µM and inactive = higher.

Usually GI50 stands for the concentration at which growth is held to half of that of the control. `O=C(c1ccc(Cl)cc1)c1cnc(Nc2ccccc2Cl)s1`: the GI50 was 18.3 µM (inactive) in experiment [1]; 17.5 µM (inactive) in experiment [2]; 25.8 µM (inactive) in experiment [3]; 31.5 µM (inactive) in [4]; 37 µM (inactive) in experiment [5]; 27.5 µM (inactive) in [6]. The GI50 in [7] is 25.1 µM (inactive); in [8] it was 25.3 µM (inactive); in [9], 20.7 µM (inactive); in [10] it was 23.2 µM (inactive); in experiment [11], 18.9 µM (inactive); in experiment [12], 21 µM (inactive). Moreover, the GI50 was 23.9 µM (inactive) in experiment [13]; 15.6 µM (inactive) in experiment [14]; > 100 µM (inactive) in experiment [15]; 36 µM (inactive) in [16]; 22 µM (inactive) in [17]; 24.4 µM (inactive) in experiment [18]. Besides, the GI50 in experiment [19] is 27.1 µM (inactive); in [20], 18.5 µM (inactive).

With `C[Si](C)(C)C#CCO[Si](C)(C)C`, the GI50 in experiment [1] was > 94.2 µM (inactive); in experiment [2], 32.7 µM (inactive); in experiment [3], > 100 µM (inactive); in [4], > 74.8 µM (inactive); in experiment [5], > 54.3 µM (inactive); in experiment [6] it was 21.9 µM (inactive). For the same compound, the GI50 in [7] was > 100 µM (inactive); in experiment [8], > 100 µM (inactive); in experiment [9], > 100 µM (inactive); in experiment [10], 16.1 µM (inactive); in experiment [11], > 100 µM (inactive); in [12], 65 µM (inactive). Besides, the GI50 is > 100 µM (inactive) in [13]; > 54.2 µM (inactive) in experiment [14]; 21 µM (inactive) in [15]; 7.03 µM (inactive) in experiment [16]; 68.7 µM (inactive) in [17]; > 100 µM (inactive) in experiment [18]. The GI50 in experiment [19] was 32.9 µM (inactive); in [20], > 100 µM (inactive).

For the compound `Cc1ccc(NCCN(C)C)c2c(=O)c3cc(O)ccc3sc12`, the GI50 in experiment [1] is 9.33 µM (inactive); in experiment [2], 1.94 µM (inactive); in experiment [3] it was 4.48 µM (inactive); in experiment [4] it was 0.177 µM (active); in [5] it was 8.85 µM (inactive); in experiment [6] it was 3.55 µM (inactive). The GI50 in [7] was 0.586 µM (active); in experiment [8] it was 0.0516 µM (active); in experiment [9], 1.22 µM (inactive); in experiment [10], 4.47 µM (inactive); in experiment [11], 1 µM (active); in experiment [12], 1.96 µM (inactive). Also, the GI50 is 0.214 µM (active) in [13]; 20.5 µM (inactive) in experiment [14]; 2.57 µM (inactive) in experiment [15]; 1.05 µM (active) in [16]; 2.22 µM (inactive) in experiment [17]; 1.22 µM (inactive) in experiment [18]. For the same compound, the GI50 in experiment [19] was 2.49 µM (inactive); in experiment [20] it was 17.6 µM (inactive).

Consider `O=C(C=P(c1ccccc1)(c1ccccc1)c1ccccc1)c1ccc(-c2cccs2)cc1`, for which the GI50 was 2.9 µM (inactive) in experiment [1]; 4.75 µM (inactive) in experiment [2]; 2.86 µM (inactive) in experiment [3]; 3.41 µM (inactive) in experiment [4]; 0.671 µM (active) in [5]; 3.97 µM (inactive) in [6]. The GI50 in experiment [7] is 6.64 µM (inactive); in [8], 3.97 µM (inactive); in [9] it was 3.11 µM (inactive); in experiment [10] it was 7.73 µM (inactive); in [11] it was 3.73 µM (inactive); in experiment [12], 3.74 µM (inactive). The GI50 in experiment [13] was 3.17 µM (inactive); in [14] it was 1.39 µM (inactive); in [15] it was 2.25 µM (inactive); in experiment [16] it was 4.57 µM (inactive); in experiment [17], 8.91 µM (inactive); in experiment [18] it was 4.12 µM (inactive). The GI50 in experiment [19] was 3.75 µM (inactive); in experiment [20], 3.08 µM (inactive).

On to `O=C1O[C@]2(c3ccccc3)C(c3ccccc3)=C[C@]2(C(=O)c2ccccc2)C1=O`, for which the GI50 is 32.6 µM (inactive) in experiment [1]; 26.2 µM (inactive) in experiment [2]; 29.9 µM (inactive) in experiment [3]; 28.4 µM (inactive) in [4]; 48.2 µM (inactive) in [5]; 23 µM (inactive) in experiment [6]. Also, the GI50 is 34 µM (inactive) in experiment [7]; 27.1 µM (inactive) in experiment [8]; 0.05 µM (active) in experiment [9]; 33.1 µM (inactive) in experiment [10]; 35.2 µM (inactive) in experiment [11]; 28.6 µM (inactive) in [12]. Further, the GI50 in experiment [13] is 37.2 µM (inactive); in [14] it was 27.2 µM (inactive); in [15], 25.8 µM (inactive); in experiment [16], 28.9 µM (inactive); in experiment [17], 33.7 µM (inactive); in experiment [18], 39.1 µM (inactive). Further, the GI50 in [19] was 55 µM (inactive); in experiment [20], 27 µM (inactive).

With `O=C1C=CC2(C=C1)O[C@H](CCc1ccccc1)[C@@H](CCc1ccccc1)O2`, the GI50 in experiment [1], in experiment [2], in experiment [3], in experiment [4], in experiment [5] and in experiment [6] was > 100 µM (inactive) in each case. For the same compound, the GI50 in experiment [7] is 61.2 µM (inactive); in experiment [8], > 100 µM (inactive); in experiment [9], 24.3 µM (inactive); in experiment [10], 98.9 µM (inactive); in [11], > 100 µM (inactive); in [12], 99.3 µM (inactive). For the same compound, the GI50 in experiment [13] is 43.7 µM (inactive); in [14], > 100 µM (inactive); in experiment [15], 82 µM (inactive); in experiment [16] it was 12.3 µM (inactive); in experiment [17] it was > 100 µM (inactive); in experiment [18] it was > 100 µM (inactive). Further, the GI50 in experiment [19] and in experiment [20] was > 100 µM (inactive) in each case.

As to `CC(C)(C)c1nc2c(o1)C(=O)c1ccccc1C2=O`, the GI50 in [1] was 0.721 µM (active); in experiment [2], 2.75 µM (inactive); in experiment [3] it was 3.3 µM (inactive); in experiment [4], 0.485 µM (active); in experiment [5], 4.81 µM (inactive); in experiment [6], 1.12 µM (inactive). Further, the GI50 in experiment [7] was 3.37 µM (inactive); in experiment [8] it was 3.82 µM (inactive); in experiment [9] it was 2.08 µM (inactive); in experiment [10], 2.46 µM (inactive); in [11] it was 2.28 µM (inactive); in experiment [12] it was 0.838 µM (active). The GI50 was 3.53 µM (inactive) in [13]; 0.592 µM (active) in experiment [14]; 1.93 µM (inactive) in experiment [15]; 0.394 µM (active) in experiment [16]; 0.373 µM (active) in experiment [17]; 0.505 µM (active) in experiment [18]. The GI50 in [19] is 3.9 µM (inactive); in experiment [20] it was 5.65 µM (inactive).

For `C=C[C@@H](C)[C@H](NS(=O)(=O)c1ccc(C)cc1)C(=O)OCC`, the GI50 in experiment [1] is 20.7 µM (inactive); in [2] it was 40.8 µM (inactive); in experiment [3], > 100 µM (inactive); in experiment [4], 28.8 µM (inactive); in experiment [5] it was 52.2 µM (inactive); in [6], > 100 µM (inactive). Further, the GI50 in [7] was > 100 µM (inactive); in experiment [8] it was 42.2 µM (inactive); in experiment [9], 42.3 µM (inactive); in experiment [10], 25.8 µM (inactive); in experiment [11] it was 35.6 µM (inactive); in experiment [12], 35.5 µM (inactive). Besides, the GI50 in experiment [13] was 32 µM (inactive); in [14], 33.3 µM (inactive); in [15], 14 µM (inactive); in experiment [16], 19.7 µM (inactive); in experiment [17] it was 39.4 µM (inactive); in experiment [18] it was 32.4 µM (inactive). The GI50 was 27.2 µM (inactive) in experiment [19] and 52.6 µM (inactive) in experiment [20].

With `CCc1nc(N)nc(N)c1-c1ccc(N2CCNCC2)cc1`, the GI50 was > 83.8 µM (inactive) in experiment [1]; 60.5 µM (inactive) in experiment [2]; > 100 µM (inactive) in [3]; 47.3 µM (inactive) in experiment [4]; 18.9 µM (inactive) in experiment [5]; 77.3 µM (inactive) in experiment [6]. Besides, the GI50 in [7] is 55.8 µM (inactive); in experiment [8] it was 33.1 µM (inactive); in experiment [9], 64.9 µM (inactive); in experiment [10] it was 64.7 µM (inactive); in [11], 51.3 µM (inactive); in experiment [12] it was 35.2 µM (inactive). For the same compound, the GI50 in experiment [13] is 54.3 µM (inactive); in experiment [14], > 100 µM (inactive); in experiment [15] it was > 56.1 µM (inactive); in experiment [16] it was 39.7 µM (inactive); in experiment [17], 46 µM (inactive); in experiment [18] it was 49.3 µM (inactive). Besides, the GI50 in [19] is 38.6 µM (inactive); in [20], > 100 µM (inactive).

Turning to `Cc1[nH]n(-c2nc3c(c(=O)[nH]2)CCC3)c(=O)c1CCO`, the GI50 in experiment [1], in experiment [2], in experiment [3], in [4], in experiment [5] and in experiment [6] was > 100 µM (inactive) each time. The GI50 in experiment [7], in [8], in experiment [9], in experiment [10], in experiment [11] and in experiment [12] was > 100 µM (inactive) throughout. In addition, the GI50 in [13], in experiment [14], in experiment [15], in experiment [16], in experiment [17] and in experiment [18] was > 100 µM (inactive) throughout. Besides, the GI50 in experiment [19] and in experiment [20] was > 100 µM (inactive) throughout.
